{
  "source": "patent US11986493B2",
  "about": "(University of Pittsburgh—Of the Commonwealth System of …, priority 2013, dated 2024)",
  "system": "subjects with pulmonary hypertension",
  "experiment": "Oxygen saturation by pulse oximeter and methemoglobin by continuous percutaneous co-oximetry",
  "assay_type": "in vivo, human",
  "protocol": "Oxygen saturation measured by pulse oximeter and methemoglobin levels monitored by continuous percutaneous co-oximetry prior to dose administration and through 4 hours post-dose were monitored closely.",
  "key": {"[1]": {"conditions": "Patient 1, nitrite 45 mg inhaled, 15 min"}, "[2]": {"conditions": "Patient 1, nitrite 45 mg inhaled, 30 min"}, "[3]": {"conditions": "Patient 1, nitrite 45 mg inhaled, 45 min"}, "[4]": {"conditions": "Patient 1, nitrite 45 mg inhaled, 60 min"}, "[5]": {"conditions": "Patient 1, nitrite 90 mg inhaled, 15 min"}, "[6]": {"conditions": "Patient 1, nitrite 90 mg inhaled, 30 min"}, "[7]": {"conditions": "Patient 1, nitrite 90 mg inhaled, 45 min"}, "[8]": {"conditions": "Patient 1, nitrite 90 mg inhaled, 60 min"}, "[9]": {"conditions": "Patient 2, nitrite 45 mg inhaled, 15 min"}, "[10]": {"conditions": "Patient 2, nitrite 45 mg inhaled, 30 min"}, "[11]": {"conditions": "Patient 2, nitrite 45 mg inhaled, 45 min"}, "[12]": {"conditions": "Patient 2, nitrite 45 mg inhaled, 60 min"}, "[13]": {"conditions": "Patient 2, nitrite 90 mg inhaled, 15 min"}, "[14]": {"conditions": "Patient 2, nitrite 90 mg inhaled, 30 min"}, "[15]": {"conditions": "Patient 2, nitrite 90 mg inhaled, 45 min"}, "[16]": {"conditions": "Patient 2, nitrite 90 mg inhaled, 60 min"}, "[17]": {"conditions": "Patient 3, nitrite 45 mg inhaled, 15 min"}, "[18]": {"conditions": "Patient 3, nitrite 45 mg inhaled, 30 min"}, "[19]": {"conditions": "Patient 3, nitrite 45 mg inhaled, 45 min"}, "[20]": {"conditions": "Patient 3, nitrite 45 mg inhaled, 60 min"}, "[21]": {"conditions": "Patient 3, nitrite 90 mg inhaled, 15 min"}, "[22]": {"conditions": "Patient 3, nitrite 90 mg inhaled, 30 min"}, "[23]": {"conditions": "Patient 3, nitrite 90 mg inhaled, 45 min"}, "[24]": {"conditions": "Patient 3, nitrite 90 mg inhaled, 60 min"}, "[25]": {"conditions": "Patient 4, nitrite 45 mg inhaled, 15 min"}, "[26]": {"conditions": "Patient 4, nitrite 45 mg inhaled, 30 min"}, "[27]": {"conditions": "Patient 4, nitrite 45 mg inhaled, 45 min"}, "[28]": {"conditions": "Patient 4, nitrite 45 mg inhaled, 60 min"}, "[29]": {"conditions": "Patient 4, nitrite 90 mg inhaled, 15 min"}, "[30]": {"conditions": "Patient 4, nitrite 90 mg inhaled, 30 min"}, "[31]": {"conditions": "Patient 4, nitrite 90 mg inhaled, 45 min"}, "[32]": {"conditions": "Patient 4, nitrite 90 mg inhaled, 60 min"}, "[33]": {"conditions": "Patient 5, nitrite 45 mg inhaled, 15 min"}, "[34]": {"conditions": "Patient 5, nitrite 45 mg inhaled, 30 min"}, "[35]": {"conditions": "Patient 5, nitrite 45 mg inhaled, 45 min"}, "[36]": {"conditions": "Patient 5, nitrite 45 mg inhaled, 60 min"}, "[37]": {"conditions": "Patient 5, nitrite 90 mg inhaled, 15 min"}, "[38]": {"conditions": "Patient 5, nitrite 90 mg inhaled, 30 min"}, "[39]": {"conditions": "Patient 5, nitrite 90 mg inhaled, 45 min"}, "[40]": {"conditions": "Patient 5, nitrite 90 mg inhaled, 60 min"}},
  "data": [
    {"smiles": "O=NO", "note": "[nitrite, sodium nitrite]", "values": [
      {"measurement": "Syst O2sat", "setting": "[1]", "value": 95},
      {"measurement": "metHgB", "setting": "[1]", "value": 1.1},
      {"measurement": "Syst O2sat", "setting": "[2]", "value": 100},
      {"measurement": "metHgB", "setting": "[2]", "value": 1.1},
      {"measurement": "Syst O2sat", "setting": "[3]", "value": 92},
      {"measurement": "metHgB", "setting": "[3]", "value": 1.3},
      {"measurement": "Syst O2sat", "setting": "[4]", "value": 92},
      {"measurement": "metHgB", "setting": "[4]", "value": 1.5},
      {"measurement": "Syst O2sat", "setting": "[5]", "value": 95},
      {"measurement": "metHgB", "setting": "[5]", "value": 1.4},
      {"measurement": "Syst O2sat", "setting": "[6]", "value": 94},
      {"measurement": "metHgB", "setting": "[6]", "value": 1.3},
      {"measurement": "Syst O2sat", "setting": "[7]", "value": 94},
      {"measurement": "metHgB", "setting": "[7]", "value": 1.2},
      {"measurement": "Syst O2sat", "setting": "[8]", "value": 94},
      {"measurement": "metHgB", "setting": "[8]", "value": 1.4},
      {"measurement": "Syst O2sat", "setting": "[9]", "value": 98},
      {"measurement": "metHgB", "setting": "[9]", "value": 1},
      {"measurement": "Syst O2sat", "setting": "[10]", "value": 99},
      {"measurement": "metHgB", "setting": "[10]", "value": 1},
      {"measurement": "Syst O2sat", "setting": "[11]", "value": 99},
      {"measurement": "metHgB", "setting": "[11]", "value": 1},
      {"measurement": "Syst O2sat", "setting": "[12]", "value": 99},
      {"measurement": "metHgB", "setting": "[12]", "value": 1},
      {"measurement": "Syst O2sat", "setting": "[13]", "value": 96},
      {"measurement": "metHgB", "setting": "[13]", "value": 1.4},
      {"measurement": "Syst O2sat", "setting": "[14]", "value": 98},
      {"measurement": "metHgB", "setting": "[14]", "value": 1.7},
      {"measurement": "Syst O2sat", "setting": "[15]", "value": 98},
      {"measurement": "metHgB", "setting": "[15]", "value": 1.7},
      {"measurement": "Syst O2sat", "setting": "[16]", "value": 100},
      {"measurement": "metHgB", "setting": "[16]", "value": 1.6},
      {"measurement": "Syst O2sat", "setting": "[17]", "value": 92},
      {"measurement": "metHgB", "setting": "[17]", "value": 1.1},
      {"measurement": "Syst O2sat", "setting": "[18]", "value": 94},
      {"measurement": "metHgB", "setting": "[18]", "value": 1.3},
      {"measurement": "Syst O2sat", "setting": "[19]", "value": 93},
      {"measurement": "metHgB", "setting": "[19]", "value": 1.5},
      {"measurement": "Syst O2sat", "setting": "[20]", "value": 94},
      {"measurement": "metHgB", "setting": "[20]", "value": 1.5},
      {"measurement": "Syst O2sat", "setting": "[21]", "value": 97},
      {"measurement": "metHgB", "setting": "[21]", "value": 1.7},
      {"measurement": "Syst O2sat", "setting": "[22]", "value": 95},
      {"measurement": "metHgB", "setting": "[22]", "value": 1.7},
      {"measurement": "Syst O2sat", "setting": "[23]", "value": 95},
      {"measurement": "metHgB", "setting": "[23]", "value": 1.6},
      {"measurement": "Syst O2sat", "setting": "[24]", "value": 95},
      {"measurement": "metHgB", "setting": "[24]", "value": 1.5},
      {"measurement": "Syst O2sat", "setting": "[25]", "value": 98},
      {"measurement": "metHgB", "setting": "[25]", "value": 1.3},
      {"measurement": "Syst O2sat", "setting": "[26]", "value": 98},
      {"measurement": "metHgB", "setting": "[26]", "value": 1.1},
      {"measurement": "Syst O2sat", "setting": "[27]", "value": 99},
      {"measurement": "metHgB", "setting": "[27]", "value": 1},
      {"measurement": "Syst O2sat", "setting": "[28]", "value": 97},
      {"measurement": "metHgB", "setting": "[28]", "value": 0.8},
      {"measurement": "Syst O2sat", "setting": "[29]", "value": 97},
      {"measurement": "metHgB", "setting": "[29]", "value": 1.7},
      {"measurement": "Syst O2sat", "setting": "[30]", "value": 97},
      {"measurement": "metHgB", "setting": "[30]", "value": 2},
      {"measurement": "Syst O2sat", "setting": "[31]", "value": 96},
      {"measurement": "metHgB", "setting": "[31]", "value": 1.2},
      {"measurement": "Syst O2sat", "setting": "[32]", "value": 96},
      {"measurement": "metHgB", "setting": "[32]", "value": 1.2},
      {"measurement": "Syst O2sat", "setting": "[33]", "value": 94},
      {"measurement": "metHgB", "setting": "[33]", "value": 1.1},
      {"measurement": "Syst O2sat", "setting": "[34]", "value": 98},
      {"measurement": "metHgB", "setting": "[34]", "value": 0.8},
      {"measurement": "Syst O2sat", "setting": "[35]", "value": 97},
      {"measurement": "metHgB", "setting": "[35]", "value": 0.7},
      {"measurement": "Syst O2sat", "setting": "[36]", "value": 94},
      {"measurement": "metHgB", "setting": "[36]", "value": 0.8},
      {"measurement": "Syst O2sat", "setting": "[37]", "value": 95},
      {"measurement": "metHgB", "setting": "[37]", "value": 0.9},
      {"measurement": "Syst O2sat", "setting": "[38]", "value": 97},
      {"measurement": "metHgB", "setting": "[38]", "value": 0.7},
      {"measurement": "Syst O2sat", "setting": "[39]", "value": 98},
      {"measurement": "metHgB", "setting": "[39]", "value": 0.7},
      {"measurement": "Syst O2sat", "setting": "[40]", "value": 97},
      {"measurement": "metHgB", "setting": "[40]", "value": 0.5},
      {"measurement": "Syst O2sat", "setting": "Patient 6, nitrite 45, 15 min", "value": 95},
      {"measurement": "metHgB", "setting": "Patient 6, nitrite 45, 15 min", "value": 1.1},
      {"measurement": "Syst O2sat", "setting": "Patient 6, nitrite 45, 30 min", "value": 99},
      {"measurement": "metHgB", "setting": "Patient 6, nitrite 45, 30 min", "value": 1.3},
      {"measurement": "Syst O2sat", "setting": "Patient 6, nitrite 45, 45 min", "value": 96},
      {"measurement": "metHgB", "setting": "Patient 6, nitrite 45, 45 min", "value": 1.3},
      {"measurement": "Syst O2sat", "setting": "Patient 6, nitrite 45, 60 min", "value": 96},
      {"measurement": "metHgB", "setting": "Patient 6, nitrite 45, 60 min", "value": 1.2},
      {"measurement": "Syst O2sat", "setting": "Patient 6, nitrite 90, 15 min", "value": 95},
      {"measurement": "metHgB", "setting": "Patient 6, nitrite 90, 15 min", "value": 1.9},
      {"measurement": "Syst O2sat", "setting": "Patient 6, nitrite 90, 30 min", "value": 95},
      {"measurement": "metHgB", "setting": "Patient 6, nitrite 90, 30 min", "value": 1.9},
      {"measurement": "Syst O2sat", "setting": "Patient 6, nitrite 90, 45 min", "value": 96},
      {"measurement": "metHgB", "setting": "Patient 6, nitrite 90, 45 min", "value": 1.7},
      {"measurement": "Syst O2sat", "setting": "Patient 6, nitrite 90, 60 min", "value": 95},
      {"measurement": "metHgB", "setting": "Patient 6, nitrite 90, 60 min", "value": 1.7},
      {"measurement": "methemoglobin", "setting": "at the doses tested (45 mg and 90 mg inhaled)", "value": "does not significantly affect"}
    ]}
  ]
}
